In patent US6849732B2, “Metalloproteinase inhibitors, pharmaceutical compositions containing them and their pharmaceutical uses, and methods and intermediates useful for their preparation” (Agouron Pharmaceuticals, Inc., priority 1995, dated 2005):
Counter-ions that a name gives are not always drawn.

Legend:
matrilysin (Matr.) = target: T1, matrilysin (Matr.) (Homo sapiens, UniProt P09237); assay: MCA fluorogenic enzyme assay, competitive inhibition analysis (Ki,app), matrilysin; type: biochemical; details: MCA peptide substrate, 37° C., pH 7.5, read-out: Enzyme Inhibition Constants (K1) Matr.
T1 sequence (P09237 95-267): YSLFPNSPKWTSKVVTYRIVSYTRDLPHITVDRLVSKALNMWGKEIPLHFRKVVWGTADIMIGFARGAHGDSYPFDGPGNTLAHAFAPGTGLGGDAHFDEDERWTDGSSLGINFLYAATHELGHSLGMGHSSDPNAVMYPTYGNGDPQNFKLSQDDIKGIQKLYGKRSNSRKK
Description: Stromelysin enzymatic activity was measured using a modified version of a resonance energy transfer fluorogenic assay as described in FEBS, vol. 296(3), p. 263 (1992), the disclosure of which is incorporated herein by reference. The MCA-peptide substrate is shown below. The fluorescent MCA group is quenched by resonance energy transfer to the 2,4-dinitrophenyl group. Matrix metalloproteinases cleave this substrate at the Gly-Leu bond. Cleavage results in the loss of energy transfer and a large increase in fluorescence of the MCA group. [drawing 56] 7-methoxycoumarin-4-yl-acetyl-pro-leu-gly-leu-3-(2,4-dinitrophenyl)-L-2,3-diaminoproprionyl-ala-arg-NH2
The MCA assay was performed at 37° C. in buffer containing 50 mM Tricine (pH 7.5), 10 mM CaCl2, 200 mM NaCl, and 1% DMSO with the following concentrations of matrix metalloproteinases: 1.4 nM stromelyin, 0.063 nM matrilysin, and 0.030 nM gelatinase A. The concentration of MCA substrate was 10 or 20 μM in a final volume of 1.6 mL. Fluorescence data was collected with Perkin-Elmer LS-5B and LS-5B spectrofluorimeters with λexcitation=328 nm and λemission=393 nm. Spectrofluorimeters were interfaced with IBM-compatible microcomputer systems.
The Km for the MCA peptide substrate with the matrix metalloproteinases is quite high and exceeds its solubility under assay conditions. Consequently, the apparent Ki (Ki,app) was determined to describe the strength of inhibition. However, in this case, Ki,app would be essentially equal to Ki since [S]<<Km. For the determination of Ki,app, the concentration of the inhibitor was varied at a constant and low concentration of substrate and the steady-state rates of fluorescence change determined. In most cases absorptive quench due to the presence of ligand was not observed. For slow-binding inhibitors, onset of inhibition curves were collected for at least 45 minutes so that equilibrium was established. Steady-state rates of fluorescence change were obtained by fitting a curve to an equation for a single exponential decay containing a linear phase. The fitted value of the linear phase was taken as the steady-state rate. The steady-state rates were fitted to the Michaelis equation describing competitive inhibition by non-linear methods. Data resulting from tight-binding inhibition was analyzed, and Ki,app determined by fitting the data to the tight-binding equation of Morrison See (Biochem. Biophys. Acta, vol. 185, pp. 269-286 (1969)) by non-linear methods.

Coll3 = Coll3 (Homo sapiens, UniProt P45452); assay: MCA fluorogenic enzyme assay, competitive inhibition analysis (Ki,app), Coll3; type: biochemical; details: MCA peptide substrate, 37° C., pH 7.5, read-out: Enzyme Inhibition Constants (K1) Coll3
stromelysin (HSLN) = stromelysin (HSLN) (Homo sapiens, UniProt P08254); assay: MCA fluorogenic enzyme assay, competitive inhibition analysis (Ki,app), stromelysin; type: biochemical; details: Ki,app; MCA peptide substrate, 37° C., pH 7.5; read-out: Enzyme Inhibition Constants (K1) HSLN
HFC = target: T2, HFC (Homo sapiens, UniProt P03956); assay: MCA fluorogenic enzyme assay, competitive inhibition analysis (Ki,app), HFC; type: biochemical; details: MCA peptide substrate, 37° C., pH 7.5, read-out: Enzyme Inhibition Constants (K1) HFC
T2 sequence (P03956 100-469): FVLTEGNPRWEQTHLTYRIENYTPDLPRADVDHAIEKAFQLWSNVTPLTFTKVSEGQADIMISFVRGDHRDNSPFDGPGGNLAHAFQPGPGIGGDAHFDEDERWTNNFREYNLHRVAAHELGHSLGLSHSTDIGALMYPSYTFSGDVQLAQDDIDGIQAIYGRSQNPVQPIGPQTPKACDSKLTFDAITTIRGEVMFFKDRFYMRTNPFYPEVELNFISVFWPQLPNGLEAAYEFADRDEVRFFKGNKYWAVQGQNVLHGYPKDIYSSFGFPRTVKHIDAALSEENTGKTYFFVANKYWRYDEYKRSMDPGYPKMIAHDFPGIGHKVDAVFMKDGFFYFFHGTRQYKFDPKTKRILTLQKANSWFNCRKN

gelatinase A (HG72kD) = target: T3, gelatinase A (HG72kD) (Homo sapiens, UniProt P08253); assay: MCA fluorogenic enzyme assay, competitive inhibition analysis (Ki,app), gelatinase A; type: biochemical; details: MCA peptide substrate, 37° C., pH 7.5, read-out: Enzyme Inhibition Constants (K1) HG72kD
T3 sequence (P08253 110-660): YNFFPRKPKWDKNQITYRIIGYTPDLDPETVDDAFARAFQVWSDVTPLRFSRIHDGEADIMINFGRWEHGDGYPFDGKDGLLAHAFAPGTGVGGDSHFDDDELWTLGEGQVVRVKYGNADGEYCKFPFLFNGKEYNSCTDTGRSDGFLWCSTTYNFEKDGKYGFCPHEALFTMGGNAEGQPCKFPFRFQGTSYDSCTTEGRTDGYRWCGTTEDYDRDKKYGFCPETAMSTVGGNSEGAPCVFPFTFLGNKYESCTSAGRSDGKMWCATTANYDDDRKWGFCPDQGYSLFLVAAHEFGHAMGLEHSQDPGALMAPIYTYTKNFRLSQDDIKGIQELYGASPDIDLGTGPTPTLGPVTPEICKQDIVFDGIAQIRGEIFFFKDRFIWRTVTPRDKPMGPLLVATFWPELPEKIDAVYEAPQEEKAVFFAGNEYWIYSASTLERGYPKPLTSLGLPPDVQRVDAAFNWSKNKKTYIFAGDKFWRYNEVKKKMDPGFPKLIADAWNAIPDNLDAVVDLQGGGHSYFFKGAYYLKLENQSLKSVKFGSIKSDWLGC

[1] = test system: bovine nasal cartilage plugs; assay: Arthritis model: implanted bovine nasal cartilage plugs in sponges impregnated with Mycobacterium tuberculosis; type: in vivo, female Lewis rats; details: p < 0.01; for weight loss % inhibition: cartilage plug weight; for hydroxyproline % protection: hydroxyproline content of plugs
Description: Previously frozen bovine nasal cartilage plugs weighing approximately 20 mg were embedded in polyvinyl sponges impregnated with Mycobacterium tuberculosis and implanted subcutaneously in female Lewis rats. Dosing was begun 9 days after implantation and the plugs were harvested about one week later. The plugs were weighed and then hydrolyzed and the hydroxyproline content measured. Efficaciousness was determined by the comparison of the compound-treated groups with vehicle-treated controls.

[2] = test system: murine Lewis lung carcinoma (NIH) tumor line; assay: Tumor model: subcutaneous Lewis lung carcinoma, primary tumor growth and lung metastases; type: in vivo, female BDF1 mice; details: 50 mg/kg, i.p., daily, Day 1-Day 21; for Tumor Growth Delay: delay in reaching 1000 mm^3 tumor volume between control and treated animals; for % Inhibition-Lung Metastases: metastases counted 22 days after tumor implantation
From the text: Primary subcutaneous tumors were established in female BDF1 mice by trocar inoculation of the murine Lewis lung carcinoma (NIH) tumor line. This tumor line produces spontaneous lung metastases which arise from the primary tumor. Primary tumor growth was monitored by measuring the length and width of the subcutaneous tumor using calipers; lung metastases were counted at the end of the experiment (22 days after tumor implantation) by removing the lungs and counting the lesions using a dissecting microscope. The test compound was administered daily, i.p., beginning 24 hours after tumor implantation (day 1) and continuing through day 21. Primary tumor volumes and number of lung metastases were compared to control animals using an ANOVA followed by a comparison of means using the F statistic. […] All drugs were administered at 50 mg/kg, i.p., daily, Day 1-Day 21.

Chain of stromelysin (HSLN) (P08254 100-477): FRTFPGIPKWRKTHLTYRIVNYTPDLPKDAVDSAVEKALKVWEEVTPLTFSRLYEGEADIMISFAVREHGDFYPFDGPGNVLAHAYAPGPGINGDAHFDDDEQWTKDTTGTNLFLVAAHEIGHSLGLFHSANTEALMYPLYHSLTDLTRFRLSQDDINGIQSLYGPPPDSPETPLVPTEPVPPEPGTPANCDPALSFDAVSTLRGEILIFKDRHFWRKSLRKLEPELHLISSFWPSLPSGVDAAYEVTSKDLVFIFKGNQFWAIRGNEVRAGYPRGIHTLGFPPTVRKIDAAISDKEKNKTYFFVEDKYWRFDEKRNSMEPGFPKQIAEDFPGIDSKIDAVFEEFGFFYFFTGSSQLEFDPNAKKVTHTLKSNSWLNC

## CCOC(=O)CN1CCN(S(=O)(=O)c2ccc(Oc3ccc(Cl)cc3)cc2)[C@@H](C(=O)NO)C1 (as salt: hydrochloride) [Example 11(c), 2(R)-N-hydroxy-1-(4-(4-chlorophenoxy)benzenesulfonyl)-4-(ethoxycarbonylmethyl)-piperazine-2-carboxamide hydrochloride]
other
  melting point: 163.7 °C

## CC(C)(C)OC(=O)N1CCN(S(=O)(=O)c2ccc(Oc3ccc(Br)cc3)cc2)C(C(=O)NO)C1 (racemic) [Example 4, 2(R/S)-N-hydroxy-1-(4-(4-bromophenoxy)benzenesulfonyl)-4-(t-butoxycarbonyl)-piperazine-2-carboxamide]
Matrilysin (Matr.)
  Ki: 378 nM
other
  melting point: 112.4 °C
Coll3
  Ki: 0.07 nM
Stromelysin (HSLN)
  Ki: 0.73 nM
HFC
  Ki: 60 nM
Gelatinase A (HG72kD)
  Ki: 0.025 nM

## CC(=O)N1CCN(S(=O)(=O)c2ccc(Oc3ccccc3)cc2)C(C(=O)NO)C1 (racemic) [7(a), 2(R/S)-N-hydroxy-1-(4-phenoxybenzenesulfonyl)-4-acetyl-piperazine-2-carboxamide]
[1]; dose p.o. 10 mg/kg/day
  weight loss % inhibition: 77.4%
  hydroxyproline % protection: 86.7%
Matrilysin (Matr.)
  Ki: 113 nM
Coll3
  Ki: 0.05 nM
[2]
  Tumor Growth Delay: 0.0 days
  % Inhibition-Lung Metastases: 16.1%
Stromelysin (HSLN)
  Ki: 0.64 nM
Gelatinase A (HG72kD)
  Ki: 0.11 nM

## CC1(C)C(C(=O)NO)N(S(=O)(=O)c2ccc(Oc3ccc(Cl)cc3)cc2)CC[S+]1[O-] [Example 19(b), 1(R), 3(S)-N-hydroxy-4-(4-(4-chlorophenoxy)benzenesulfonyl)-2,2-dimethyl-1-oxo-tetrahydro-2H-1,4-thiazine-3-carboxamide]
other
  melting point: 145 to 147 °C
Stromelysin (HSLN)
  Ki: 2.5 nM
Gelatinase A (HG72kD)
  Ki: 0.018 nM

## Cc1ccc(Oc2ccc(S(=O)(=O)Cl)cc2)cc1 [2(b), 4-(4-Methylphenoxy)benzenesulfonyl chloride]
[1]; dose p.o. 25 mg/kg/day
  weight loss % inhibition: 81.1%
other
  melting point: 295 to 300 °C

## Cl.O=C(NO)C1CNCCN1S(=O)(=O)c1ccc(Oc2ccc(Br)cc2)cc1 (racemic) [5(a), 2(R/S)-N-hydroxy-1(4-(4-bromophenoxy)benzenesulfonyl)-piperazine-2-carboxamide hydrochloride]
[1]; dose p.o. 10 mg/kg/day
  weight loss % inhibition: 59.6%
  hydroxyproline % protection: 72.5%
Matrilysin (Matr.)
  Ki: 263 nM
Coll3
  Ki: 1.1 nM
[2]
  Tumor Growth Delay: 2.0 days
  % Inhibition-Lung Metastases: 13.6%
Stromelysin (HSLN)
  Ki: 1.8 nM
HFC
  Ki: 68 nM
Gelatinase A (HG72kD)
  Ki: 0.77 nM

## CC1(C)SCCN(S(=O)(=O)c2ccc(Oc3ccc(-n4ccnc4)cc3)cc2)[C@H]1C(=O)NO [3(a), 3(S)-N-hydroxy-4-(4-(4-(imidazol-1-yl)phenoxy)benzenesulfonyl)-2,2-dimethyl-tetrahydro-2H-1,4-thiazine-3-carboxamide]
[1]; dose p.o. 25 mg/kg/day
  weight loss % inhibition: 97.5%
Matrilysin (Matr.)
  Ki: 5 nM
Coll3
  Ki: 0.017 nM
Stromelysin (HSLN)
  Ki: 0.25 nM
HFC
  Ki: 15 nM
Gelatinase A (HG72kD)
  Ki: 0.011 nM

## O=C(NO)C1CNCCN1S(=O)(=O)c1ccc(Oc2ccccc2)cc1 (racemic) [Example 5(b), 2(R/S)-N-hydroxy-1-(4-phenoxybenzenesulfonyl)-piperazine-2-carboxamide]
Matrilysin (Matr.)
  Ki: 560 nM
other
  melting point: 160.4 °C
Stromelysin (HSLN)
  Ki: 6.2 nM
Gelatinase A (HG72kD)
  Ki: 0.864 nM
